Reference: paper PMC12609530, “Capillary Electrophoresis as a Useful Tool to Separate Isomeric Opioid–Neurotensin Hybrid Peptides” (Molecules, 2025)
Like-named read-outs stand apart in the source and are kept apart here. Square brackets hold non-standard residues; d marks the D form. Peptide text beside a SMILES is read from it. Dmt = Cc1cc(O)cc(C)c1C[C@H](N)C(=O)O; Tle = CC(C)(C)[C@H](N)C(=O)O

Settings: CE-UV 200 nm; for BenchTop Obtained Concentration, Mean ± SD / BenchTop Obtained Concentration, %: after 6 h at room temperature; for BenchTop Obtained Concentration, Mean ± SD: ACN/0.1% TFA extraction; for BenchTop Obtained Concentration, Mean ± SD / Freeze and Thaw Obtained Concentration, Mean ± SD / Short Term Obtained Concentration, Mean ± SD: mean ± SD for five replicates; for BenchTop Obtained Concentration, % / Freeze and Thaw Obtained Concentration, % / Short Term Obtained Concentration, %: % of spiked concentration, five replicates; for Freeze and Thaw Obtained Concentration, % / Freeze and Thaw Obtained Concentration, Mean ± SD: after three freeze and thaw cycles at −20 °C; for Short Term Obtained Concentration, % / Short Term Obtained Concentration, Mean ± SD: at −25 °C for 30 days
Method: To ensure the applicability of the method for bioanalytical studies, stability tests were conducted under various storage and handling conditions.
The stock solutions of PK20 and [Ile9]PK20 compounds at a concentration of 10,000 ng/mL were prepared by dissolving the appropriate amounts of the substances in a 25 mM phosphate buffer at pH 2.5. Calibration solutions at specific concentrations were prepared on their basis. All solutions were stored at −15 °C. […] Calibration solutions at concentrations of 10, 50, 100, 500, 1000, and 5000 ng/mL were prepared in both water and serum by adding appropriate volumes of the stock solutions to serum samples free of the tested analytes.
To a 100 µL serum sample, 200 µL of acetonitrile (ACN) containing 0.1% trifluoroacetic acid (TFA) was added then immediately mixed by vortexing and centrifuged at 20,000× g for 4 min. The resulting supernatant was filtered using an ultrafiltration centrifuge (MWCO 30,000; Microcon YM-30, Millipore Corporation, Bradford, MA, USA) and then lyophilized. The dry residue was dissolved in 100 µL of deionized water and introduced into the capillary. The extraction procedure for PK20 and [Ile9]PK20 compounds was performed for three concentration ranges, namely 20 ng/mL, 500 ng/mL, and 5000 ng/mL.
Samples were introduced into the system hydrodynamically at a pressure of 2 psi for 6 s. Electrophoresis was performed at a voltage of 10 kV (normal polarity, anode on the inlet side of the capillary) at a temperature of 25 °C. Between subsequent analyses, the capillary was rinsed with water for 2 min and with BGE for 3 min. After each series of analyses, the working buffer was replaced to ensure repeatable separations.

| SMILES | BenchTop Obtained Concentration, Mean ± SD (spiked 50 ng/mL in serum) [ng/mL] | BenchTop Obtained Concentration, % (spiked 50 ng/mL in serum) [%] | Freeze and Thaw Obtained Concentration, % (spiked 50 ng/mL in serum) [%] | Freeze and Thaw Obtained Concentration, Mean ± SD (spiked 50 ng/mL in serum) [ng/mL] | Short Term Obtained Concentration, % (spiked 50 ng/mL in serum) [%] | Short Term Obtained Concentration, Mean ± SD (spiked 50 ng/mL in serum) [ng/mL] | BenchTop Obtained Concentration, Mean ± SD (spiked 500 ng/mL in serum) [ng/mL] | BenchTop Obtained Concentration, % (spiked 500 ng/mL in serum) [%] | Freeze and Thaw Obtained Concentration, % (spiked 500 ng/mL in serum) [%] | Freeze and Thaw Obtained Concentration, Mean ± SD (spiked 500 ng/mL in serum) [ng/mL] | Short Term Obtained Concentration, % (spiked 500 ng/mL in serum) [%] | Short Term Obtained Concentration, Mean ± SD (spiked 500 ng/mL in serum) [ng/mL] |
| --- | --- | --- | --- | --- | --- | --- | --- | --- | --- | --- | --- | --- |
| CC[C@H](C)[C@H](NC(=O)[C@H](Cc1ccccc1)NC(=O)[C@@H]1CCCN1C(=O)[C@H](CCCCN)NC(=O)[C@H](CCCCN)NC(=O)[C@H](Cc1ccccc1)NC(=O)[C@H](Cc1ccccc1)NC(=O)[C@@H](CCCCN)NC(=O)[C@@H](N)Cc1c(C)cc(O)cc1C)C(=O)N[C@@H](CC(C)C)C(=O)O [[Ile9]PK20, H-Dmt-D-Lys-Phe-Phe-Lys-Lys-Pro-Phe-Ile-Leu-OH] (H-[Dmt][dK]FFKKPFIL-OH) | 24.46 ± 1.1 | 48.92 | 25.44 | 12.72 ± 1.4 | 97.70 | 48.85 ± 1.2 | 246.15 ± 1.0 | 49.23 | 25.51 | 127.53 ± 1.2 | 99.56 | 497.80 ± 1.1 |
| Cc1cc(O)cc(C)c1C[C@H](N)C(=O)N[C@H](CCCCN)C(=O)N[C@@H](Cc1ccccc1)C(=O)N[C@@H](Cc1ccccc1)C(=O)N[C@@H](CCCCN)C(=O)N[C@@H](CCCCN)C(=O)N1CCC[C@H]1C(=O)N[C@@H](Cc1ccccc1)C(=O)N[C@H](C(=O)N[C@@H](CC(C)C)C(=O)O)C(C)(C)C [PK20, H-Dmt-D-Lys-Phe-Phe-Lys-Lys-Pro-Phe-Tle-Leu-OH] (H-[Dmt][dK]FFKKPF[Tle]L-OH) | 23.92 ± 1.2 | 47.84 | 24.10 | 12.05 ± 1.5 | 95.04 | 47.52 ± 1.4 | 240.53 ± 0.9 | 48.11 | 25.24 | 126.20 ± 0.7 | 99.12 | 495.58 ± 1.1 |
